For assay [1], the target named is T1, outer ubiquinone-binding site of complex III (site IIIQo) (Rattus norvegicus, UniProt P00159+P20788).
T1 construct: from tissue; host or cells: skeletal muscle mitochondria
In words: Site-specific H2O2 production from site IIIQo in skeletal muscle mitochondria. It is filed as biochemical. The note with it: primary screen, ∼2.5 µM, average of duplicates; 5 mM succinate. The essentials: (§1)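 Isolated rat skeletal muscle mitochondria; H2O2 read by Amplex UltraRed with added SOD and HRP. Site IF/DH: 5 mM glutamate, 5 mM malate, 4 µM rotenone. Site IIF: palmitoylcarnitine or succinate with rotenone/antimycin A/myxothiazol. Site IIIQo: succinate, rotenone, antimycin A. Screen at 2.5 µM, normalised as % change from DMSO.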

The subject of assay [2] is flavin mononucleotide site of complex I (site IF) plus matrix NAD-linked dehydrogenases (site IF/DH). As to the kind of experiment: Site-specific H2O2 production from site IF/DH in skeletal muscle mitochondria. Type of assay: biochemical, rat. The following applies: primary screen, ∼2.5 µM, average of duplicates. A digest of the protocol:
as §1

Assay [3] addresses T2, flavin site of complex II (site IIF) (Rattus norvegicus, UniProt Q920L2).
T2 construct: from tissue; host or cells: skeletal muscle mitochondria
In words: Site-specific H2O2 production from site IIF in skeletal muscle mitochondria. It is filed as biochemical. The following applies: primary screen, ∼2.5 µM, average of duplicates; palmitoylcarnitine. The essentials:
as §1

The target of the next assay is T3, mGPDH (Rattus norvegicus, UniProt P35571).
T3 construct: Activity of mGPDH in frozen-thawed skeletal muscle mitochondria was measured; from tissue; host or cells: skeletal muscle mitochondria
T3 sequence (P35571 43-727): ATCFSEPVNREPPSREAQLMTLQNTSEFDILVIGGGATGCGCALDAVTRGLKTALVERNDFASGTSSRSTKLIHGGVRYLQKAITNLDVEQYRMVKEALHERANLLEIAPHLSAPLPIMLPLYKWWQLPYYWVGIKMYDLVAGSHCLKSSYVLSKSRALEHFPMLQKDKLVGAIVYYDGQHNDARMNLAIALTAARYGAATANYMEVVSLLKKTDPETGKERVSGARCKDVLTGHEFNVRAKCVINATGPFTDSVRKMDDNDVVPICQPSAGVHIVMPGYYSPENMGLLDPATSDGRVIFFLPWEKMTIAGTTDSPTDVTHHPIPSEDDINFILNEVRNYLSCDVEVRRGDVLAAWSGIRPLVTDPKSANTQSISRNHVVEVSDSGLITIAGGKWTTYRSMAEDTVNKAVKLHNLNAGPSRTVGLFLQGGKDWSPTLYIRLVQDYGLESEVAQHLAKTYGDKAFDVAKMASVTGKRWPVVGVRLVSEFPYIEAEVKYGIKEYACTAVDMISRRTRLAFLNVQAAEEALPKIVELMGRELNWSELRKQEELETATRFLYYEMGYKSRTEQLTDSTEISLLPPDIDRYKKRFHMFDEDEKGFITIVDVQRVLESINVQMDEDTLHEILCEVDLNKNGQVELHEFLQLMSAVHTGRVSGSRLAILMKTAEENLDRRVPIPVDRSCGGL
As to the kind of experiment: Superoxide/H2O2 production by mGPDH in isolated skeletal muscle mitochondria (Amplex UltraRed). Type of assay: biochemical.

In assay [4] the test system is skeletal muscle mitochondria. In words: Mitochondrial respiration (Seahorse XF24) in plate-attached skeletal muscle mitochondria. Type of assay: biochemical, rat. The method, then: The effects of small-molecule inhibitors on respiration were tested in plate-attached skeletal muscle mitochondria using a Seahorse XF24 Analyzer according to published protocols. Briefly, mitochondria (2 or 4 µg protein) were attached to Seahorse assay plates by centrifugation in a mannitol and sucrose-based medium (Seahorse MAS buffer) containing 0.3% (w/v) BSA without or with 250 nM free calcium at pH 7.0. […] Compounds were added in these media just prior to loading the assay plate into the Seahorse instrument. Additions were made to set respiration in basal state 2 (substrate only), phosphorylating state 3 (5 mM ADP), non-phosphorylating state 4o (0.5 ug ⋅ mL^−1 oligomycin), and to reveal the non-mitochondrial rate (2 µM myxothiazol and 2.5 µM antimycin A). Each concentration of compound was tested in at least two wells on each plate. At least three biological replicates of each titration in each substrate condition were performed.

Molecules are shown by their SMILES. Where two headings read alike, the source gives them in different places.

T2 sequence (Q920L2 35-656): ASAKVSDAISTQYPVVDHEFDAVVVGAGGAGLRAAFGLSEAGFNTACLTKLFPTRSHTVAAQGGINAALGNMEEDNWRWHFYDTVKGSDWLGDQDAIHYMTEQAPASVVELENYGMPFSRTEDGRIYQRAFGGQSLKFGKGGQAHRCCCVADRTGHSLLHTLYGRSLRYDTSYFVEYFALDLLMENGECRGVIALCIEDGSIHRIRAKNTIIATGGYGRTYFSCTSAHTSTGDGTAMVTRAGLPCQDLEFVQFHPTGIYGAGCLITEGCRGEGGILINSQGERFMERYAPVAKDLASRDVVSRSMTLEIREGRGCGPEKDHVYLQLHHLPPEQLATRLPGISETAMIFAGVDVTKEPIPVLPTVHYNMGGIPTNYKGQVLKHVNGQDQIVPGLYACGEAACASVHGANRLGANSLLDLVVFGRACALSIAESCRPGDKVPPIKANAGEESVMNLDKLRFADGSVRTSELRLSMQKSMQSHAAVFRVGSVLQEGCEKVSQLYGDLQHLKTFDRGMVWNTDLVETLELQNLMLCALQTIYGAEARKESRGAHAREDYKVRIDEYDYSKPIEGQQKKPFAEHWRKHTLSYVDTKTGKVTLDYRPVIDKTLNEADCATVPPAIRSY
T2 sequence (P21913 31-282 partner): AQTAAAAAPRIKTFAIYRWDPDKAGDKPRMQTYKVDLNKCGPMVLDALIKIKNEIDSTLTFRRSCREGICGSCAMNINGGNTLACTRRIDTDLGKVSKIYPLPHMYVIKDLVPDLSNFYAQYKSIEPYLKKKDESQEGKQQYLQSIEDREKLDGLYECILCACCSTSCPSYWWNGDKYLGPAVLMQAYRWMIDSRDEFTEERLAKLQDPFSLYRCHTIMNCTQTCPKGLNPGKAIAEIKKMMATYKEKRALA
T2 sequence (Q641Z9 30-169 partner limits assumed): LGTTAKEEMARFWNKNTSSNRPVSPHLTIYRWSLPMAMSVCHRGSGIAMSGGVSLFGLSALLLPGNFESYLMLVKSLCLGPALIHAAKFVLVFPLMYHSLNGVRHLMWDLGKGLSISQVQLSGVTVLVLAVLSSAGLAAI
T2 sequence (Q6PCT8 57-159 partner): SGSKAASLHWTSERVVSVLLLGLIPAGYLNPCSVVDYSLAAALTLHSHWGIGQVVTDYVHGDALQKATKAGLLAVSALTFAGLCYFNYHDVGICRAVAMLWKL

With `O=C(O)CCC(=O)Nc1ccc(-c2nc3ccccc3[nH]2)cc1` [iGP-1], in assay [1], the “IIIQo (% change from DMSO)” value is -0.246%. Further, in assay [2], the “IF/DH (% change from DMSO)” value is 4.1%. Also, the “IIF (% change from DMSO)” value in assay [3] is 3.6%. For the same compound, the IC50 on mGPDH (Fig. 4 structure/activity microplate assay, 0.08–80 µM, estimated, means of two replicates, read-out: mGPDH H2O2 production IC50) is 8 µM; on mGPDH (Fig. 9B, read-out: mGPDH H2O2 Production IC50), 13.6 ± 1.3 µM; on mGPDH (titration up to 80 µM (Fig. 6B, Fig. 7B), read-out: half-maximal effect on H2O2 production by mGPDH) it was approximately 8 µM. In addition, on mGPDH (primary screen, ∼2.5 µM, average of duplicates, 16.7 mM glycerol phosphate, no added calcium), the “mGPDH (% change from DMSO)” value is listed as -21.6%. Besides, the inhibition at 80 µM at mGPDH (read-out: mGPDH H2O2 production (% change at 80 μM)) worked out at 55%. Also, in assay [4] (25 and 80 µM, 16.7 mM glycerol phosphate, rotenone, 250 nM free calcium), the “effect on glycerol phosphate-dependent respiration” value is recorded as “significantly decreased”. Also, the “effect on respiration on other substrates” value in assay [4] (pyruvate and malate, glutamate and malate, succinate and rotenone) was “without altering”.
